Source: PubChem BioAssay AID256 (DTP/NCI, 2004)
Several values for one entry are separate records, joined by “and”; a condition that tells them apart may be missing. Equal values may be shown once. Toxic doses and inconclusive results are not listed.

Tested on: CD2F1 mice, L1210 leukemia ip, survival T/C
Assay: NCI In Vivo Anticancer Drug Screen. Data for tumor model L1210 Leukemia (intraperitoneal) in CD2F1 (CDF1) mice
Settings: higher = longer survival
How it was run: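 Tumor-bearing mice (transplanted tumor) were split into treated and vehicle control groups, and the measured endpoint of each treated group was divided by that of its vehicle controls.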

[1] = endpoint: mean survival time, dose: 25.0 mg/kg/injection, schedule: Q04DX003 (ip), vehicle: saline with Tween-80
[2] = endpoint: mean survival time, dose: 100.0 mg/kg/injection, schedule: Q01DX001 (ip), vehicle: saline with Tween-80
[3] = endpoint: mean survival time, dose: 100.0 mg/kg/injection, schedule: Q04DX003 (ip), vehicle: saline with Tween-80

N[C@H](C(=O)O)[C@@H]1CC(Cl)=NO1
T/C (endpoint: mean survival time, dose: 0.5 mg/kg/injection, schedule: Q01DX009 (ip), vehicle: saline): 113 % of control | T/C (endpoint: mean survival time, dose: 0.78 mg/kg/injection, schedule: Q01DX009 (ip), vehicle: saline): 115 % of control | T/C (endpoint: mean survival time, dose: 1.0 mg/kg/injection, schedule: Q01DX009 (ip), vehicle: saline): 122 % of control | T/C (endpoint: mean survival time, dose: 2.0 mg/kg/injection, schedule: Q01DX009 (ip), vehicle: saline): 124 % of control | T/C (endpoint: mean survival time, dose: 3.0 mg/kg/injection, schedule: Q01DX009 (ip), vehicle: saline): 167 % of control | T/C (endpoint: mean survival time, dose: 3.12 mg/kg/injection, schedule: Q01DX009 (ip), vehicle: saline): 153 % of control | T/C (endpoint: mean survival time, dose: 6.0 mg/kg/injection, schedule: Q01DX009 (ip), vehicle: saline): 165 % of control | T/C (endpoint: mean survival time, dose: 6.25 mg/kg/injection, schedule: Q01DX009 (ip), vehicle: saline): 151 % of control and 156 % of control | T/C (endpoint: mean survival time, dose: 8.0 mg/kg/injection, schedule: Q01DX009 (ip), vehicle: saline): 157 % of control | T/C (endpoint: mean survival time, dose: 12.0 mg/kg/injection, schedule: Q01DX009 (ip), vehicle: saline): 104 % of control | T/C (endpoint: mean survival time, dose: 12.5 mg/kg/injection, schedule: Q01DX009 (ip), vehicle: saline): 118 % of control and 122 % of control | T/C (endpoint: mean survival time, dose: 16.0 mg/kg/injection, schedule: Q01DX009 (ip), vehicle: saline): 155 % of control | T/C (endpoint: mean survival time, dose: 25.0 mg/kg/injection, schedule: Q01DX009 (ip), vehicle: saline): 92 % of control | T/C (endpoint: mean survival time, dose: 100.0 mg/kg/injection, schedule: Q04DX003 (ip), vehicle: water): 153 % of control | T/C (endpoint: median survival time, dose: 0.5 mg/kg/injection, schedule: Q01DX009 (ip), vehicle: saline): 122 % of control | T/C (endpoint: median survival time, dose: 1.0 mg/kg/injection, schedule: Q01DX009 (ip), vehicle: saline): 163 % of control | T/C (endpoint: median survival time, dose: 2.0 mg/kg/injection, schedule: Q01DX009 (ip), vehicle: saline): 180 % of control | T/C (endpoint: median survival time, dose: 3.0 mg/kg/injection, schedule: Q01DX009 (ip), vehicle: saline): 152 % of control | T/C (endpoint: median survival time, dose: 4.0 mg/kg/injection, schedule: Q01DX009 (ip), vehicle: saline): 150 % of control | T/C (endpoint: median survival time, dose: 6.0 mg/kg/injection, schedule: Q01DX009 (ip), vehicle: saline): 114 % of control and 109 % of control | T/C (endpoint: median survival time, dose: 16.0 mg/kg/injection, schedule: Q01DX009 (ip), vehicle: saline): 123 % of control | T/C (endpoint: median survival time, dose: 24.0 mg/kg/injection, schedule: Q01DX009 (ip), vehicle: saline): 72 % of control

CCCCCCCCCCCCCC(=O)OC1C(CO)OC2C1Oc1nc(=N)ccn12 (configuration not stated)
T/C (endpoint: mean survival time, dose: 25.0 mg/kg/injection, schedule: Q01DX009 (ip), vehicle: other): 153 % of control | T/C (endpoint: mean survival time, dose: 50.0 mg/kg/injection, schedule: Q01DX009 (ip), vehicle: other): 212 % of control | T/C (endpoint: mean survival time, dose: 100.0 mg/kg/injection, schedule: Q01DX009 (ip), vehicle: other): 278 % of control

Cn1nnc2c(C(N)=O)ncn2c1=O
T/C (endpoint: median survival time, dose: 6.25 mg/kg/injection, schedule: Q01DX009 (ip), vehicle: saline with Tween-80): 111 % of control | T/C (endpoint: median survival time, dose: 12.5 mg/kg/injection, schedule: Q01DX009 (ip), vehicle: saline with Tween-80): 122 % of control | T/C (endpoint: median survival time, dose: 25.0 mg/kg/injection, schedule: Q01DX009 (ip), vehicle: saline with Tween-80): 151 % of control | T/C (endpoint: median survival time, dose: 50.0 mg/kg/injection, schedule: Q01DX009 (ip), vehicle: saline with Tween-80): 159 % of control and 168 % of control | T/C (endpoint: median survival time, dose: 100.0 mg/kg/injection, schedule: Q01DX009 (ip), vehicle: saline with Tween-80): 182 % of control and 193 % of control | T/C (endpoint: median survival time, dose: 200.0 mg/kg/injection, schedule: Q01DX009 (ip), vehicle: saline with Tween-80): 121 % of control and 93 % of control

CN(C)N=Nc1ccccc1C(N)=O
T/C (endpoint: mean survival time, dose: 18.8 mg/kg/injection, schedule: Q01DX009 (ip), vehicle: Klucel (hydroxypropylcellulose) (HPC)): 106 % of control | T/C (endpoint: mean survival time, dose: 37.5 mg/kg/injection, schedule: Q01DX009 (ip), vehicle: Klucel (hydroxypropylcellulose) (HPC)): 117 % of control and 106 % of control | T/C (endpoint: mean survival time, dose: 75.0 mg/kg/injection, schedule: Q01DX009 (ip), vehicle: Klucel (hydroxypropylcellulose) (HPC)): 116 % of control and 123 % of control | T/C (endpoint: mean survival time, dose: 100.0 mg/kg/injection, schedule: Q01DX009 (ip), vehicle: Klucel (hydroxypropylcellulose) (HPC)): 151 % of control | T/C (endpoint: mean survival time, dose: 150.0 mg/kg/injection, schedule: Q01DX009 (ip), vehicle: Klucel (hydroxypropylcellulose) (HPC)): 123 % of control and 86 % of control and 101 % of control

FC(F)(F)C(Cl)(c1ccc(Cl)cc1)c1ccc(Cl)cc1
T/C (endpoint: mean survival time, dose: 50.0 mg/kg/injection, schedule: Q04DX003 (sc), vehicle: olive oil, sesame oil, peanut oil): 101 % of control | T/C (endpoint: mean survival time, dose: 100.0 mg/kg/injection, schedule: Q04DX003 (sc), vehicle: olive oil, sesame oil, peanut oil): 108 % of control | T/C (endpoint: mean survival time, dose: 200.0 mg/kg/injection, schedule: Q04DX003 (sc), vehicle: olive oil, sesame oil, peanut oil): 97 % of control | T/C (endpoint: mean survival time, dose: 400.0 mg/kg/injection, schedule: Q04DX003 (sc), vehicle: olive oil, sesame oil, peanut oil): 101 % of control

O=C1C=C(C2OC(CI)C(O)C2O)C(=O)N1 (configuration not stated)
T/C (endpoint: mean survival time, dose: 12.5 mg/kg/injection, schedule: Q01DX005 (ip), vehicle: water): 109 % of control | T/C (endpoint: mean survival time, dose: 25.0 mg/kg/injection, schedule: Q01DX005 (ip), vehicle: water): 107 % of control

CC(=O)Nc1cccc(/C=C/c2ccc([N+](=O)[O-])cc2)c1
T/C (endpoint: mean survival time, dose: 100.0 mg/kg/injection, schedule: Q01DX001 (ip), vehicle: Klucel (hydroxypropylcellulose) (HPC)): 100 % of control | T/C (endpoint: mean survival time, dose: 200.0 mg/kg/injection, schedule: Q01DX001 (ip), vehicle: Klucel (hydroxypropylcellulose) (HPC)): 103 % of control | T/C (endpoint: mean survival time, dose: 400.0 mg/kg/injection, schedule: Q01DX001 (ip), vehicle: Klucel (hydroxypropylcellulose) (HPC)): 93 % of control

CC(C)(C)N1CCC1C(O)c1ccccc1 (configuration not stated)
T/C [1]: 100 % of control | T/C (endpoint: mean survival time, dose: 50.0 mg/kg/injection, schedule: Q04DX003 (ip), vehicle: saline with Tween-80): 102 % of control | T/C [2]: 98 % of control | T/C [3]: 95 % of control

CCC(/C=C1\Oc2ccc(-c3ccccc3)cc2N1CC)=C\c1oc2ccc(-c3ccccc3)cc2[n+]1CC
T/C (endpoint: mean survival time, dose: 4.4 mg/kg/injection, schedule: Q01DX009 (ip), vehicle: other): 117 % of control

c1ccc(N/N=C(/CC/C(=N\Nc2ccccc2)c2ccccc2)c2ccccc2)cc1
T/C [2]: 96 % of control | T/C (endpoint: mean survival time, dose: 200.0 mg/kg/injection, schedule: Q01DX001 (ip), vehicle: saline with Tween-80): 96 % of control | T/C (endpoint: mean survival time, dose: 400.0 mg/kg/injection, schedule: Q01DX001 (ip), vehicle: saline with Tween-80): 93 % of control

O=C1CC(=O)NC(=S)N1
T/C (endpoint: mean survival time, dose: 100.0 mg/kg/injection, schedule: Q01DX009 (ip), vehicle: saline): 95 % of control | T/C (endpoint: mean survival time, dose: 200.0 mg/kg/injection, schedule: Q01DX009 (ip), vehicle: saline): 93 % of control

O=C(/C=C\c1ccccc1)/C=C/c1ccccc1
T/C (endpoint: mean survival time, dose: 177.0 mg/kg/injection, schedule: Q01DX001 (ip), vehicle: other): 96 % of control | T/C (endpoint: mean survival time, dose: 267.0 mg/kg/injection, schedule: Q01DX001 (ip), vehicle: other): 92 % of control | T/C (endpoint: mean survival time, dose: 400.0 mg/kg/injection, schedule: Q01DX001 (ip), vehicle: other): 104 % of control | T/C (endpoint: mean survival time, dose: 600.0 mg/kg/injection, schedule: Q01DX001 (ip), vehicle: other): 107 % of control

Clc1cccc(-c2cc(-c3ccccc3)[nH]n2)c1
T/C (endpoint: mean survival time, dose: 100.0 mg/kg/injection, schedule: Q01DX001 (ip), vehicle: saline sonified): 95 % of control | T/C (endpoint: mean survival time, dose: 200.0 mg/kg/injection, schedule: Q01DX001 (ip), vehicle: saline sonified): 97 % of control | T/C (endpoint: mean survival time, dose: 400.0 mg/kg/injection, schedule: Q01DX001 (ip), vehicle: saline sonified): 97 % of control

C=C[Si]1(C)O[Si](C)(C=C)O[Si](C)(C=C)O1 (configuration not stated)
T/C (endpoint: mean survival time, dose: 50.0 mg/kg/injection, schedule: Q01DX009 (ip), vehicle: saline with Tween-80): 93 % of control | T/C (endpoint: mean survival time, dose: 100.0 mg/kg/injection, schedule: Q01DX009 (ip), vehicle: saline with Tween-80): 104 % of control | T/C (endpoint: mean survival time, dose: 200.0 mg/kg/injection, schedule: Q01DX009 (ip), vehicle: saline with Tween-80): 93 % of control

CC1CC2OC(=O)C(O)(CO)C2CC2(C)C(=O)C=CC12 (configuration not stated)
T/C (endpoint: mean survival time, dose: 25.0 mg/kg/injection, schedule: Q04DX002 (ip), vehicle: saline): 102 % of control | T/C (endpoint: mean survival time, dose: 50.0 mg/kg/injection, schedule: Q04DX002 (ip), vehicle: saline): 107 % of control

COc1ccc2c3csc4ccccc4c-3nc2c1
T/C [3]: 91 % of control

O=C(NC1CC1(c1ccccc1)c1ccccc1)NC1CC1(c1ccccc1)c1ccccc1 (configuration not stated)
T/C (endpoint: mean survival time, dose: 9.35 mg/kg/injection, schedule: Q01DX001 (ip), vehicle: other): 93 % of control | T/C (endpoint: mean survival time, dose: 18.7 mg/kg/injection, schedule: Q01DX001 (ip), vehicle: other): 91 % of control | T/C (endpoint: mean survival time, dose: 37.5 mg/kg/injection, schedule: Q01DX001 (ip), vehicle: other): 94 % of control

C=CC1CCCCC1C=C (configuration not stated)
T/C [3]: 110 % of control | T/C (endpoint: mean survival time, dose: 200.0 mg/kg/injection, schedule: Q04DX003 (ip), vehicle: saline with Tween-80): 102 % of control | T/C (endpoint: mean survival time, dose: 400.0 mg/kg/injection, schedule: Q04DX003 (ip), vehicle: saline with Tween-80): 100 % of control

CCCCCCCCCCCCOC(=O)C[n+]1cccc(C(=O)NCc2ccccc2)c1
T/C (endpoint: mean survival time, dose: 6.25 mg/kg/injection, schedule: Q04DX003 (ip), vehicle: saline with Tween-80): 108 % of control | T/C (endpoint: mean survival time, dose: 12.5 mg/kg/injection, schedule: Q04DX003 (ip), vehicle: saline with Tween-80): 104 % of control | T/C [1]: 106 % of control
